Source: patent US20060116400A1, “Oxazolidinone and/or isoxazoline derivatives as antibacterial agents” (AstraZeneca AB, priority 2002, published 2006)
In brackets after ≈: the same amount, converted by molar mass. Each block holds one compound with its values, some of them ahead of it.

What was measured:
MAO-A = molecular target: T1, MAO-A (Homo sapiens, UniProt P21397); experiment: MAO-A inhibition (Ki); type: biochemical; settings: * = approximate values
T1 sequence (P21397 1-527): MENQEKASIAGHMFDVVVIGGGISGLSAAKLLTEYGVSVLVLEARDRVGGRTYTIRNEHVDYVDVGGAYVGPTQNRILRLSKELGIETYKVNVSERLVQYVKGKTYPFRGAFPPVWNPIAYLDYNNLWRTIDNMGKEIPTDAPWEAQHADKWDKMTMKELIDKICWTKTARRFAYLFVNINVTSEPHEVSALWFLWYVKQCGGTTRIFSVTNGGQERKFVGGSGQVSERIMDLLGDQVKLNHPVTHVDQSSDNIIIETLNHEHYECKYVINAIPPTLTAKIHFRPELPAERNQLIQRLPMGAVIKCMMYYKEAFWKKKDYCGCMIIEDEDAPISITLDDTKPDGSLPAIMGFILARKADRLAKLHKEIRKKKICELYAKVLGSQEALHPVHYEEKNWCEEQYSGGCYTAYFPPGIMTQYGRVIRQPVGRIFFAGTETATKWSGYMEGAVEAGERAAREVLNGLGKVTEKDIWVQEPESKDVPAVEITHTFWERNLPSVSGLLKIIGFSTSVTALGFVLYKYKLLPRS

[1] = tested on: Staphylococcus aureus MRQR; experiment: MIC, standard in-vitro test, agar dilution; type: cell-based; settings: Staphylococcus aureus MRQR (methicillin resistant and quinolone resistant), 10^4 CFU/spot, 37° C., 24 hours
Method: (§1) The following results were obtained on a standard in-vitro test system The activity is described in terms of the minimum inhibitory concentration (MIC) determined by the agar-dilution technique with an inoculum size of 10^4 CFU/spot. Typically, compounds are active in the range 0.01 to 256 μg/ml.
(§2) Staphylococci were tested on agar, using an inoculum of 10^4 CFU/spot and an incubation temperature of 37° C. for 24 hours—standard test conditions for the expression of methicillin resistance.

[2] = tested on: Staphylococcus aureus MSQS; experiment: MIC, standard in-vitro test, agar dilution; type: cell-based; settings: Staphylococcus aureus MSQS (methicillin sensitive and quinolone sensitive), 10^4 CFU/spot, 37° C., 24 hours
Method: as §1, §2

Enterococcus faecium = experiment: MIC, standard in-vitro test, agar with 5% horse blood; type: cell-based; settings: agar with 5% defibrinated horse blood, 48 hours
Method: as §1
(§3) Streptococci and enterococci were tested on agar supplemented with 5% defibrinated horse blood, an inoculum of 10^4 CFU/spot and an incubation temperature of 37° C. in an atmosphere of 5% carbon dioxide for 48 hours—blood is required for the growth of some of the test organisms. Fastidious Gram negative organisms were tested in Mueller-Hinton broth, supplemented with hemin and NAD, grown aerobically for 24 hours at 37° C., and with an innoculum of 5×10^4 CFU/well

[3] = tested on: Linezolid Resistant Streptococcus pneumoniae; experiment: as above; type: cell-based; settings: agar with 5% defibrinated horse blood, 48 hours
Method: as §1, §3

Streptococcus pneumoniae = experiment: as above; type: cell-based; settings: agar with 5% defibrinated horse blood, 10^4 CFU/spot, 37° C., 5% carbon dioxide, 48 hours
Method: as §1, §3

Haemophilus influenzae = experiment: MIC, fastidious Gram negative organisms in Mueller-Hinton broth; type: cell-based; settings: Mueller-Hinton broth with hemin and NAD, 24 hours, 37° C., 5×10^4 CFU/well
Method: as §1, §3

Moraxella catarrhalis = experiment: as above; type: cell-based; settings: Mueller-Hinton broth with hemin and NAD, 24 hours, 37° C., 5×10^4 CFU/well
Method: as §1, §3

SMILES: O=C1O[C@@H](Cn2ccnn2)CN1c1ccc(-c2ccc(C3=NO[C@@H]([C@H](O)CO)C3)nc2)c(F)c1 [Example 52, (5R)-3-[4-(6-{(5R)-5-[(1R)-1,2-Dihydroxyethyl]-4,5-dihydroisoxazol-3-yl}pyridin-3-yl)-3-fluorophenyl]-5-(1H-1,2,3-triazol-ylmethyl)-1,3-oxazolidin-2-one]
Ki (MAO-A): ~35 µM

SMILES: O=C1O[C@@H](Cn2ccnn2)CN1c1ccc(-c2ccc(C3=NO[C@@H]([C@@H](O)CO)C3)nc2)c(F)c1 [Example 54, (5R)-3-[4-(6-{(5R)S-5-[(1S)-1,2-Dihydroxyethyl]-4,5-dihydroisoxazol-3-yl}pyridin-3-yl)-3-fluorophenyl]-5-(1H-1,2,3-triazol-1-ylmethyl)-1,3-oxazolidin-2-one]
Ki (MAO-A): 8 µM

SMILES: O=C1O[C@@H](Cn2ccnn2)CN1c1ccc(-c2ccc(C3=NOC(CO)(CO)C3)cc2)c(F)c1 [Example 2, (5R)-3-{4′-(5,5-bis(Hydroxymethyl)-4,5-dihydroisoxazol-3-yl]-2-fluoro-1,1′-biphenyl-4-yl}-5-(1H-1,2,3-triazol-1-ylmethyl)-1,3-oxazolidin-2-one]
MIC [1]: 0.5 µg/mL (≈ 1.07 µM)
MIC [2]: 0.5 µg/mL (≈ 1.07 µM)
MIC (Enterococcus faecium): 0.25 µg/mL (≈ 0.535 µM)
MIC [3]: 1 µg/mL (≈ 2.14 µM)
MIC (Streptococcus pneumoniae): 0.13 µg/mL (≈ 0.278 µM)
MIC (Haemophilus influenzae): 4 µg/mL (≈ 8.56 µM)
MIC (Moraxella catarrhalis): 0.5 µg/mL (≈ 1.07 µM)

Second part, the compound after the results:

Ki (MAO-A): ~60 µM
SMILES: O=C1O[C@@H](Cn2ccnn2)CN1c1ccc(-c2ccc(C3=NO[C@H]([C@H](O)CO)C3)nc2)c(F)c1 [Example 51, (5R)-3-[4-(6-{(5S)-5-[(1R)-1,2-Dihydroxyethyl]-4,5-dihydroisoxazol-3-yl}pyridin-3-yl)-3-fluorophenyl]-5-(1H-1,2,3-triazol-1-ylmethyl)-1,3-oxazolidin-2-one]

Ki (MAO-A): 60 µM
SMILES: O=C1O[C@@H](Cn2ccnn2)CN1c1ccc(-c2ccc(C3=NO[C@H]([C@@H](O)CO)C3)nc2)c(F)c1 [Example 53, (5R)-3-[4-(6-{(5S)-[(1S)-1,2-Dihydroxyethyl]-4,5-dihydroisoxazol-3-yl}pyridin-3-yl)-3-fluorophenyl]-5-(1H-1,2,3-triazol-1-ylmethyl)-1,3-oxazolidin-2-one]

melting point: 190 to 194 °C
SMILES: O=C(O)C1CC(c2ccc(-c3ccc(N4C[C@H](Cn5ccnn5)OC4=O)cc3F)cn2)=NO1 (stereo partly drawn) [Example 22, 3-(5-{2-Fluoro-4-[(5R)-2-oxo-5-(1H-1,2,3-triazol-1-ylmethyl)-1,3-oxazolidin-3-yl]phenyl}pyridin-2-yl)-4,5-dihydroisoxazole-5-carboxylic acid]
